{
  "source": "patent US20080299130A1",
  "about": "“Methods And Compositions For The Treatment Of Ocular Neovascularization” (UNIVERSITY OF KENTUCKY RESEARCH FOUNDATION, priority 2004, published 2008)",
  "tested_on": "laser-induced CNV",
  "assay": "Laser-induced choroidal neovascularization (CNV) volume after intravitreous injection",
  "assay_type": "in vivo, mouse",
  "protocol": "Laser photocoagulation (532 nm, 200 mW, 100 ms, 75 μm; OcuLight GL, Iridex, Mountain View, Calif.) was performed on both eyes of each animal by a single individual masked to genetic identity. Laser spots (volume studies: 3/eye; angiography: 4/eye; protein analyses/flow cytometry: 12/eye) were applied in a standardized fashion around the optic nerve, using a slit lamp delivery system and a cover slip as a contact lens. The morphological endpoint of the laser injury was the appearance of a cavitation bubble, a sign thought to correlate with the disruption of Bruch's membrane.\nTwo weeks after laser injury, eyes were enucleated and fixed with 4% paraformaldehyde (PFA) for 30 minutes at 4° C. […]\nFlat mounts were examined with a scanning laser confocal microscope (TCS SP, Leica, Heidelberg, Germany). […] The area of CNV-related fluorescence was measured by computerized image analysis with the microscope software (TCS SP; Leica). […]\nBecause the probability of each laser lesion developing CNV is influenced by the group to which it belongs, the mouse, the eye, and the laser spot, the mean lesion volumes were compared using a linear mixed model with a split plot repeated measures design, as previously described (Sakurai, et al., (2003), Invest Opthalmol Vis Sci 44, 2743-2749; Sakurai et al., (2003), Invest Opthalmol Vis Sci 44, 3578.3585). […] Statistical significance was determined at the 0.05 level. […]",
  "data": [
    {"substance": "Recombinant MCP-1: recombinant mouse MCP-1 protein (Ccl-2)", "values": [
      {"measurement": "Effect on CNV", "setting": "MCP-1 knock out mice (FIG. 5, FIG. 6)", "value": "restores CNV"},
      {"measurement": "CNV restored, % of control", "setting": "recombinant MCP-1 0.55 ng given with anti-VEGF-A antibody, n=6, P=0.82", "value": "95.7±13.0 % of control"}
    ]}
  ]
}
